Experimental data taken from patent publication US20250099420A1, “SMALL MOLECULE MODULATORS OF GPR139 COMPLEX” (University of Florida Research Foundation, Incorporated, priority 2022, published 2025).
Like-named read-outs stand apart in the source and are kept apart here.

Legend:
parental HEK cells = assay: HEK parental Agonist Counterscreen Assay (non-transfected cells); format: cell-based; conditions: for Averaged Max % Response (±St. Dev.): activity relative to known control
Text: The high control for the agonist counterscreen was Forskolin not acetylcholine.

GPR139 = biological target: T1, GPR139 (Homo sapiens, UniProt Q6DWJ6); assay: GPR139 Agonist titration / agonist counterscreen assay (calcium detection, HEK-GPR139 cells); format: cell-based; parameters: expressed in transfected cells; host or cells: HEK Aequorin cells, Maxcyte transient transfection; conditions: GPR139 Agonist Activity; for EC50: read-out: EC50; for Averaged Max % Response (±St. Dev.): activity relative to known control
T1 sequence (Q6DWJ6 1-353): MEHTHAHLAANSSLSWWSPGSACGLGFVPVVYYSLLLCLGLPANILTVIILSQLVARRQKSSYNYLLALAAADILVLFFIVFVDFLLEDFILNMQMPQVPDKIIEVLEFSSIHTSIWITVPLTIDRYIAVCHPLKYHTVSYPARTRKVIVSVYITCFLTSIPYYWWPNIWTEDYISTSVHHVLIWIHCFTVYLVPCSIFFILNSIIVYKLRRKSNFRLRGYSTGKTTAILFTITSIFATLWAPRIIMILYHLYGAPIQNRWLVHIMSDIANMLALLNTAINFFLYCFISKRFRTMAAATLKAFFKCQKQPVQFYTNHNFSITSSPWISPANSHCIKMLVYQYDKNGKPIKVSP
Procedure: GPR activity was assessed using a calcium detection assay. […] Negative control samples were treated with DMSO. […] Intracellular calcium was measured using Calcium 5.

[1] = HEK Agonist Activity section of Table 4 (parental HEK counterscreen)
[2] = Homo sapiens, HEK293, HEK Agonist Activity section of Table 4 (parental HEK counterscreen)
[3] = values printed in E-notation without unit

Compound | Lipophilic Efficiency (logD) (parental HEK cells; HEK Agonist Activity section) | Lipophilic Efficiency (logP) (parental HEK cells; HEK Agonist Activity section) | EC50 (parental HEK cells; [1]) [µM] | Averaged Max % Response (±St. Dev.) (parental HEK cells; HEK Agonist Activity section) [%] | Efficiency Ligand (GPR139) | Hill Slope (GPR139) | Lipophilic Efficiency (logD) (GPR139) | Lipophilic Efficiency (logP) (GPR139) | EC50 (GPR139; HEK-GPR139 cells) [µM] | Averaged Max % Response (±St. Dev.) (GPR139) [%] | EC50 (parental HEK cells; [2]) [µM] | Lipophilic Efficiency (logD) (GPR139; based on logD) | Lipophilic Efficiency (logP) (GPR139; based on logP) | Hill Slope (GPR139; fitted dose-response curve) | Efficiency Ligand (GPR139; ligand efficiency) | EC50 (GPR139; [3]) [µM] | Lipophilic Efficiency (logD) (parental HEK cells; HEK Agonist Activity) | Lipophilic Efficiency (logP) (parental HEK cells; HEK Agonist Activity) | Averaged Max % Response (±St. Dev.) (parental HEK cells; HEK Agonist Activity) [%] | EC50 (parental HEK cells; Homo sapiens, HEK293, HEK Agonist Activity, parental non-transfected HEK cells) [µM]
NC1=NC(=O)/C(=C\c2ccc(Cl)cc2Cl)S1 [SR-01000310833] | 1.78 | 1.78 | > 14.1 | 13.95 ± 0.93 | 0.56 | 0.71 | 3.32 | 3.32 | 0.407 | 80.08 ± 5.83 |  |  |  |  |  |  |  |  |  | 
COc1ccc(CC(=O)NNC(=O)C(C)Oc2ccc(Cl)cc2Cl)cc1OC (stereo not shown) [SR-01000312779] | 1.69 | 1.66 |  | 13.34 ± 1.65 | 0.30 | 1.91 | 2.77 | 2.74 | 1.2 | 81.17 ± 17.61 | > 14.1 |  |  |  |  |  |  |  |  | 
Cc1ccc(CCC(=O)NNC(=O)CCc2ccccc2)c(Br)c1 [SR-01000313193] | 1.40 | 1.39 |  | 8.61 ± 6.03 | 0.36 | 1.19 | 2.69 | 2.69 | 0.719 | 90.41 ± 15.26 | > 14.1 |  |  |  |  |  |  |  |  | 
O=C(NCCCn1ccnc1)c1cc2nc3c(c(C(F)(F)F)n2n1)CCc1ccccc1-3 [SR-01000313440] | 1.45 | 1.38 |  | 0.31 ± 4.15 | 0.28 | 1.29 | 3.07 | 3.01 | 0.332 | 84.05 ± 13.31 | > 14.1 |  |  |  |  |  |  |  |  | 
O=C(CCc1ccccc1)NNC(=O)C12CC3CC(CC(C3)C1)C2 [SR-01000314474] | 1.59 | 1.59 |  | −0.07 ± 5.01 | 0.37 | 2.04 | 3.13 | 3.13 | 0.401 | 90.74 ± 17.54 | > 14.1 |  |  |  |  |  |  |  |  | 
O=C(COc1ccc2ccccc2c1)NNC(=O)Cc1cccc2ccccc12 [SR-01000316766] | 1.14 | 1.14 |  | −0.94 ± 3.21 |  |  |  |  |  | 101.45 ± 17.20 | > 14.1 | 3.15 | 3.15 | 1.07 | 0.33 | 0.138 |  |  |  | 
CCC(=O)NNC(=O)C(C)Oc1ccc(Cl)cc1Cl (stereo not shown) [SR-01000316982] | 2.52 | 2.48 |  | 2.44 ± 4.96 | 0.46 | 1.19 | 3.90 | 3.86 | 0.58 | 86.53 ± 11.45 | > 14.1 |  |  |  |  |  |  |  |  | 
Cc1cc(Cl)ccc1OCC(=O)NNC(=O)C1CC1c1ccccc1 (stereo not shown) [SR-01000317486] |  |  |  |  |  |  |  |  |  | 114.27 ± 15.21 |  | 4.70 | 4.70 | 1.01 | 0.44 | 0.0123 | 1.64 | 1.64 | 3.86 ± 3.87 | > 14.1
Cc1cccc(OCC(=O)NNC(=O)C(C)Oc2ccc(Cl)cc2Cl)c1 (stereo not shown) [SR-01000318010] | 1.19 | 1.15 | > 14.1 | 12.20 ± 3.74 |  |  |  |  |  | 90.09 ± 14.61 |  | 3.32 | 3.28 | 1.08 | 0.38 | 0.103 |  |  |  | 
N#C/C(=C/c1ccc(CNS(=O)(=O)c2ccccc2)o1)C(=O)NCCc1ccccc1 [SR-01000318079] | 1.96 | 1.94 | > 14.1 | 11.69 ± 6.13 |  |  |  |  |  | 102.46 ± 8.64 |  | 3.78 | 3.77 | 0.56 | 0.30 | 0.21 |  |  |  | 
Cc1c(Cl)c([N+](=O)[O-])nn1CC(=O)NC(C)COc1ccccc1 (stereo not shown) [SR-01000318171] | 2.16 | 2.16 |  | 6.88 ± 5.68 | 0.36 | 1.01 | 3.49 | 3.49 | 0.656 | 76.40 ± 3.97 | > 14.1 |  |  |  |  |  |  |  |  | 
Cc1cc(Br)ccc1OCC(=O)NNC(=O)c1ccccc1C [SR-01000318521] | 1.31 | 1.30 |  | 6.11 ± 9.12 | 0.36 | 0.97 | 2.40 | 2.39 | 1.2 | 72.38 ± 5.96 | > 14.1 |  |  |  |  |  |  |  |  | 
CC(Oc1ccc(Cl)cc1Cl)C(=O)NNC(=O)c1ccncc1 (stereo not shown) [SR-01000319951] | 2.60 | 2.54 |  | 7.14 ± 13.31 |  |  |  |  |  | 97.49 ± 3.70 | > 14.1 | 4.59 | 4.53 | 0.88 | 0.42 | 0.143 |  |  |  | 
O=C(O)CC1CCCC1c1ccccc1 (stereo not shown) [SR-01000320687] | 4.35 | 1.80 |  | 17.26 ± 6.30 | 0.56 | 0.93 | 5.53 | 2.98 | 0.93 | 65.23 ± 8.63 | > 14.1 |  |  |  |  |  |  |  |  | 
COc1ccccc1NC(=O)C(=O)NNC(=O)COc1ccc(Br)cc1C [SR-01000325257] | 2.48 | 2.44 |  | −2.80 ± 2.96 | 0.29 | 0.69 | 3.27 | 3.22 | 2.3 | 66.69 ± 11.44 | > 14.1 |  |  |  |  |  |  |  |  | 
COc1ccc(CCN2CC3=C(C2=O)C(c2ccc(F)c(F)c2)NC(=O)N3)cc1 (stereo not shown) [SR-01000335002] | 3.09 | 3.09 | > 14.1 | 20.28 ± 3.20 | 0.31 | 0.68 | 4.62 | 4.62 | 0.422 | 86.79 ± 17.90 |  |  |  |  |  |  |  |  |  | 
